In patent publication EP3731817B1, “PHARMACEUTICAL COMPOSITION OF LENALIDOMIDE PHARMACEUTICALLY ACCEPTABLE ACID ADDITION SALT” (KRKA, d.d., Novo mesto, priority 2017, dated 2019):
Where a name gives a salt, the structure may show the parent alone.

Legend:
[1] = Stability testing: physical form (disproportionation) monitored by X-ray powder diffraction after storage in vials; type: physicochemical; details: physical form found by XRPD after storage in vials
Experimental: The binary mixtures and pharmaceutical compositions were stored in vials at 40°C/75%RH for 1 month or at 50° C 75% RH for 14 days. Disproportionation effect was monitored by X-ray powder diffraction pattern.
X-ray powder diffraction patterns were obtained by a PANalytical PW3040/60 X'Pert PRO diffractometer using CuKα radiation of 1,541874.
(§1) Lenalidomide hydrochloride and the all the excipients with respect to the composition were weighed into the glass vial. Gelatine capsule were added into the vials. The vials were then closed with the stopper and gently mixed to form a homogenous mixture. The vials were subjected to the stress conditions.
as §1, with “hydrochloride in the form of monohydrate form VII” for “hydrochloride”, “vials. Vials” for “vials. The vials”
The capsules were stored in vials at 40°C/75%RH for 1 month. Physical stability of the samples was monitored by X-ray powder diffraction pattern. As evident from the results, the physical form remains the same, a disproportionation effect was not observed.

[2] = cited from earlier work

Stability testing 1 month at 40°C/75%RH [1] | SMILES | dissociation constant pKa1 ([2]; primary amine group) | pKa2 ([2]; secondary amine group)
HCl salt | Nc1cccc2c1CN(C1CCC(=O)NC1=O)C2=O (stereo not drawn) [API, Lenalidomid HCl·H2O] |  | 
 | Nc1cccc2c1CN(C1CCC(=O)NC1=O)C2=O (stereo not drawn) [lenalidomide, (3-(4' aminoisoindoline-1'-one)-1-piperidine-2,6-dione)] | 2.31 | 11.6
